Assay results taken from US9290764B2, “RNAi for the control of insects and arachnids” (Devgen NV, priority 2005, dated 2016).

B1: Bg001 concatemer 2: dsRNA concatemer, five times repeat of a 50 bp Bg001 fragment (SEQ ID NO 66) (nucleic acid)
DNA: CTTGGGTCGTGTTGGAACTGTAGTTAATCGAGAACGTCATCCTGGTTCCTCTTGGGTCGTGTTGGAACTGTAGTTAATCGAGAACGTCATCCTGGTTCCTCTTGGGTCGTGTTGGAACTGTAGTTAATCGAGAACGTCATCCTGGTTCCTCTTGGGTCGTGTTGGAACTGTAGTTAATCGAGAACGTCATCCTGGTTCCTCTTGGGTCGTGTTGGAACTGTAGTTAATCGAGAACGTCATCCTGGTTCCT
modifications: Concatemer

Tested on: German cockroach, Blattella germanica
Assay: Cockroach laboratory trial of Bg001 dsRNA and Bg001 concatemer 2 (mortality and moulting to adult)
Assay type: in vivo
Settings: for number of cockroaches successfully moulting to the adult stage, as a percentage of live insects (means±standard errors, n=4): pellets 1% w/w
Experimental: Table 3: Effect of dsRNA treatments on the number of cockroaches successfully moulting to the adult stage, as a percentage of live insects (means±standard errors, n=4)
FIG. 2: Mortality of B. germanica on artificial pellet diet. The concentration of dsRNA (Bg001, having the sequence as represented as SEQ ID NO 9, and Bg001 concatemer 2, having the sequence as represented as SEQ ID NO 68) in the pellets was 1% w/w. In this experiment, hexaflumuron (1% w/w) was tested as a positive control and solvent as a negative control.
Stock solutions of 1-10 μg/μl dsRNA in distilled water were prepared. Each dsRNA solution was diluted to the appropriate concentration and mixed with finely ground laboratory diet (Rat and mouse standard diet, B&K Universal Ltd, Hull, UK), which was previously heat treated in order to inactivate any enzymes. The mixture or formulation was formed into small pellets of equal weight (0.3 g) to achieve an end concentration of 0.1% to 2% w/w dsRNA and dried overnight at room temperature.
Newly hatched nymphs from the German cockroach, B. germanica were housed per 10 in plastic lidded containers (29±2° C., minimum 40% relative humidity, with a 12:12 light:dark photoperiod). Animals were starved 24 hours prior to exposure to the pellets. The cockroaches were assessed as live, moribund or dead twice a week until adulthood. The pellet was replaced with freshly prepared pellet once a week. dsRNA containing pellets, formulations, were compared with a negative control (solvent) and a positive control (1 or 2% imidacloprid, commonly used in commercially available cockroach baits).
Concatemers were designed for each target gene. Concatemers are synthetic tandem repeats of 50 to 100 bp dsfragments. In the present example, concatemers were designed by selecting the best possible fragments in regions with homology in protein family as well as at nucleotide level, in regions containing the best predicted siRNAs and in regions with between 40 and 60% GC content, preferably about 50% GC content, if possible.
For Bg001 two concatemers were designed consisting of a five times repeat of a 50 bp fragment, ie represented by SEQ ID NO 65 and 66, resulting in Bg001 concatemer 1 and Bg001 concatemer 2, herein represented respectively as SEQ ID NO 67 and SEQ ID NO 68, and one concatemer was designed consisting of a three times repeat of a 100 bp repeat, ie represented by SEQ ID NO 69, resulting in Bg001 concatemer 3, herein represented as SEQ ID NO 70. XbaI and SmaI flanking sites were added for cloning in a vector to produce dsRNA. These dsRNA constructs comprising the concatemers were tested in the cockroach laboratory trials.
For example at day 48, from the surviving cockroaches treated with Bg001 only 33.3 moulted to the adult stage whereas none of the cockroaches treated with Bg001 concatemer 2 did within this time as shown in Table 3.

| Molecule | number of cockroaches successfully moulting to the adult stage, as a percentage of live insects (means±standard errors, n=4) (Day 38) | number of cockroaches successfully moulting to the adult stage, as a percentage of live insects (means±standard errors, n=4) (Day 41) | number of cockroaches successfully moulting to the adult stage, as a percentage of live insects (means±standard errors, n=4) (Day 45) | number of cockroaches successfully moulting to the adult stage, as a percentage of live insects (means±standard errors, n=4) (Day 48) | number of cockroaches successfully moulting to the adult stage, as a percentage of live insects (means±standard errors, n=4) (Day 52) | mortality compared to the negative control (solvent) (artificial pellet diet, dsRNA 1% w/w (FIG. 2)) |
| --- | --- | --- | --- | --- | --- | --- |
| O=C(NC(=O)c1c(F)cccc1F)Nc1cc(Cl)c(OC(F)(F)C(F)F)c(Cl)c1 [Positive control, hexaflumuron] | 0.0 (±0.0) % | 0.0 (±0.0) % | 0.0 (±0.0) % | 0.0 (±0.0) % | 0.0 (±0.0) % |  |
| B1 | 0.0 (±0.0) % | 0.0 (±0.0) % | 0.0 (±0.0) % |  | 0.0 (±0.0) % | significant higher |
